Measured values published in US20050272737A1, “Combined treatment with irinotecan and an epidermal growth factor receptor kinase inhibitor” (priority 2004, published 2005).
Where two headings read alike, the source gives them in different places.

How the values were obtained:
[1] = cited from earlier work
in vivo = assay: in vivo
Procedure: The dose of 60 mg/kg was selected as the rational maximum therapeutic dose based on investigator experience with this agent.

[2] = study 531; for toxicity and unscheduled deaths: single agent groups and low dose combination (25/15 mg/kg)
Procedure: (§1) The health of all animals was determined daily by gross observation of experimental animals and by the analyses of blood samples of sentinel animals that were housed on the shared shelf racks. All animals were allowed to acclimate and recover from any shipping related stress for one week prior to experimental manipulation. […] Cages, bedding and water bottles were autoclaved before use and were changed weekly. […] All in vivo experiments were performed in accordance with protocols approved by the Roche Animal Care and Use Committee (RACUC). The Roche animal care facility is fully accredited by the American Association for the Accreditation of Lab Animal Care (AAALAC).
(§2) Tarceva™ was administered using a 1 cc syringe and 18-gauge gavage needles (0.2 ml/animal). […] All groups were treated q4d for 3 weeks (total 6 injections). Treatment ended on Aug. […] No end of study of drug exposure analysis was performed on this study.
A full necropsy was performed on five mice per treatment from all remaining groups, Whole blood was also collected for hematology and clinical chemistry. Tumors were removed and fixed in zinc formalin and subsequently embedded in paraffin. Immunohistochemistry can be performed on these sections to assess apoptosis via TUNEL and proliferative index via Ki67. Necrosis can also be assessed on H&E stained sections.
(§3) Tumor measurements and mouse weights were taken two-three times per week for LoVo and HCT116. All animals were individually followed throughout the experiment.
Weight loss was graphically represented as percent change in mean group body weight, using the formula: ((W−W0)/W0)×100 • where ‘W’ represents mean body weight of the treated group at a particular day, and ‘W0’ represents mean body weight of the same treated group at initiation of treatment.

[3] = tested on: LoVo colorectal xenograft; assay: Anti-tumor efficacy in LoVo human colorectal xenograft in nude mice (study 525; also experiment 540); format: in vivo, female athymic nu/nu mice
Procedure: (§4) In this study, the drugs were combined at their respective maximum tolerated dose (MTD) and also combined together at sub-optimal doses. All doses included in the combination groups were also included in the study as monotherapy arms. The attempt was to achieve maximum efficacy/regression without increased toxicity.
as §1
LoVo cells were grown in F-12K+20% FBS (not heat inactivated) and harvested. 5×10^6 cells/0.2 ml/mouse in PBS (Phosphate Buffered Saline) were implanted subcutaneously in the right flank on Jul.
(§5) Formulated compound was made up in one batch for the entire 3 week study.
(§6) An aliquot of the stock vial solutions was taken for each dose group representing the drug needed for that group for the entire study duration and diluted out further with sterile saline, to provide a solution that renders a 0.2 ml dosing volume for each individual animal.
For study […], animals were randomized according to tumor volume on day 17 post tumor implantation so that all groups had similar starting mean tumor volumes of 100-150 mm^3.
[…] Treatment ended on Aug. […] No end of study drug exposure analysis was performed on this study.
as §3
(§7) Efficacy data was graphically represented as the mean tumor volume+standard error of the mean (SEM).
(§8) Tumor volume (in cubic millimeters) was calculated using the ellipsoid formula: (D×(d2))/2 • where ‘D’ represents the large diameter of the tumor, and ‘d’ represents the small diameter.
(§9) In some cases, tumor regression and/or percent change in tumor volume was calculated using the formula: ((T−T0)/T0)×100 • where ‘T’ represents mean tumor volume of the treated group at a particular day and ‘T0’ represents mean tumor volume of the same treated group at initiation of treatment.
(§10) Statistical analysis was determined by the rank sum test and One Way Anova and a post-hoc Bonferroni t-test (SigmaStat, version 2.0, Jandel Scientific, San Francisco, Calif.).

[4] = tested on: HCT116 colorectal xenograft; assay: Anti-tumor efficacy in HCT116 human colorectal xenograft in nude mice (study 531); format: in vivo, female athymic nu/nu mice; conditions: for classification of the HCT116 tumor line towards the agent: therapeutic doses: Tarceva 100 mg/kg qd, Iressa 150 mg/kg
Procedure: as §4, §1
HCT-116 cells were grown in McCoy's 5A Modified Medium +10% FBS and harvested. 3×10^6 cells/0.2 ml/mouse in PBS (Phosphate Buffered Saline) were implanted subcutaneously in the right flank on Jul.
as §5, §6, §2, §3, §7, §8, §9, §10

[5] = Toxicity (body weight, deaths, clinical signs, necropsy) in LoVo study 525; format: in vivo, female nude mice; conditions: Tarceva 100 mg/kg monotherapy
Procedure: Female nude mice (10/group), obtained from Charles River Laboratories (Wilmington, Mass.) at an age of 4-6 weeks, and were used when they were ˜10-12 weeks old and weighed ˜23-25 grams.
For efficacy study 525, treatment began on Jul. […] Treatment ended on Aug. 19, 2002 (Day 38 post-tumor implant). No end of study drug exposure analysis was performed on this study.
All animals were individually followed throughout the experiment.

[6] = tested on: LoVo colorectal xenograft; assay: Anti-tumor efficacy in LoVo human colorectal xenograft in nude mice (study 525; also experiment 540); format: in vivo, female athymic nu/nu mice; remark: listed apart in the source
[7] = Tarceva 25 mg/kg qd monotherapy, study 525, day 38

Which response rate ([1]; single-agent treatment, advanced colorectal cancer) does the source give for O=c1[nH]cc(F)c(=O)[nH]1 [5-fluorouracil] here?
Its response rate is “about 10%”.

Which MTD at 3 weeks (in vivo; female, mouse, in vivo, iv) does the source give for CCc1c2c(nc3ccc(OC(=O)N4CCC(N5CCCCC5)CC4)cc13)-c1cc3c(c(=O)n1C2)COC(=O)[C@]3(O)CC [CPT-11] here?
The MTD at 3 weeks was 66 mg/kg.

What about the “toxicity and unscheduled deaths” value [2] of the same molecule?
The value was “No toxicity or unscheduled deaths”.

What about the “Tumor growth inhibition (TGI)” value ([3]; CPT-11 15 mg/kg q4d iv monotherapy, study 525) of the same molecule?
The value was 93%.

And the tumors partially regressed ([3]; CPT-11 60 mg/kg q4d iv monotherapy, study 525)?
Its tumors partially regressed is 90%.

And the “Tumor growth inhibition (TGI)” value ([3]; CPT-11 60 mg/kg q4d iv monotherapy, study 525, day 38)?
Its value is greater than 100%.

And the “Tumor growth inhibition (TGI)” value ([4]; CPT-11 15 mg/kg q4d iv monotherapy, study 531)?
The value was 73%.

And the tumors partially regressed ([4]; CPT-11 60 mg/kg q4d iv monotherapy, study 531)?
Its tumors partially regressed is 70%.

What about the “Tumor growth inhibition (TGI)” value ([4]; CPT-11 60 mg/kg q4d iv monotherapy, study 531, day 35) of the same molecule?
Its value is greater than 100%.

With COc1cc2ncnc(Nc3ccc(F)c(Cl)c3)c2cc1OCCCN1CCOCC1 [Iressa™] as the molecule, how does the “toxicity and unscheduled deaths” value [2] read?
The value was “No toxicity or unscheduled deaths”.

What about the “classification of the HCT116 tumor line towards the agent” value [4] of the same molecule?
Its value is “refractory”.

Which tolerability (in vivo; Tarceva 150 mg/kg once a day in CMC/Tween for 3 weeks, previous efficacy studies) does the source give for C#Cc1cccc(Nc2ncnc3cc(OCCOC)c(OCCOC)cc23)c1 [Tarceva™, [6,7-bis(2-methoxyethoxy)-4-quinazolin-4-yl]-(3-ethynylphenyl) amine] here?
The tolerability was “tolerated well”.

What about the tolerability (in vivo; Tarceva 200 mg/kg qd, CMC/Tween, MTD study) of the same molecule?
The tolerability was “toxicity”.

And the MTD at 14 days (in vivo; female, mouse, in vivo)?
The MTD at 14 days was 100 mg/kg.

And the skin finding [5]?
The skin finding was “classic reddening of the skin”.

What about the tumor regression ([6]; Tarceva 25 mg/kg qd monotherapy, study 525) of the same molecule?
Its tumor regression is “no regression”.

And the “% T/C” value [6, 7]?
Its value is 21%.

What about the “Tumor growth inhibition (TGI)” value [6, 7] of the same molecule?
Its value is 79%.

What about the Tumor growth inhibition ([6]; Tarceva 25 mg/kg qd, experiments 525 and 540) of the same molecule?
Its Tumor growth inhibition is 53-79%.

And the “tumors with partial regression” value ([6]; Tarceva 100 mg/kg qd oral monotherapy, study 525)?
The value was 60%.

What about the “% T/C” value ([6]; Tarceva 100 mg/kg qd oral monotherapy, study 525, day 38) of the same molecule?
The value was −2%.

And the “Tumor growth inhibition (TGI)” value ([6]; Tarceva 100 mg/kg qd oral monotherapy, study 525, day 38 post tumor implant)?
The value was greater than 100%.

What about the skin finding ([2]; Tarceva 100 mg/kg monotherapy) of the same molecule?
The skin finding was “classic reddening of the skin”.

What about the “toxicity and unscheduled deaths” value [2] of the same molecule?
Its value is “No toxicity or unscheduled deaths”.

What about the “Tumor growth inhibition (TGI)” value ([3]; Tarceva 100 mg/kg, experiment 540) of the same molecule?
The value was 98%.

And the tumors partially regressed ([3]; Tarceva 100 mg/kg, experiments 525 and 540)?
The tumors partially regressed was 40-60%.

What about the “mice showing partial regressions (PR)” value ([3]; erlotinib 100 mg/kg, fraction of mice) of the same molecule?
The value was 6/10.

And the “single agent tumor efficacy / tumor growth inhibition” value ([4]; Tarceva 25 mg/kg qd monotherapy, study 531, day 35)?
Its value is “not seen”.

What about the “single agent tumor efficacy / tumor growth inhibition” value ([4]; Tarceva 25 mg/kg qd monotherapy, study 531, day 35, listed as erlotinib) of the same molecule?
The value was “did not render significant tumor growth inhibition”.

What about the “single agent tumor efficacy / tumor growth inhibition” value ([4]; Tarceva 100 mg/kg qd monotherapy, study 531, day 35 post tumor implant) of the same molecule?
Its value is “not seen”.

And the “single agent tumor efficacy / tumor growth inhibition” value ([4]; Tarceva 100 mg/kg qd monotherapy, study 531, day 35 post tumor implant, listed as erlotinib)?
The value was “did not render significant tumor growth inhibition”.

And the “classification of the HCT116 tumor line towards the agent” value [4]?
The value was “refractory”.

With O=C(O)C(=O)O.[NH-][C@@H]1CCCC[C@H]1[NH-].[Pt+2] [oxaliplatin] as the molecule, how does the response rate ([1]; combined with 5-FU and leucovorin, first-line treatment for colorectal cancer) read?
The response rate was 25-40%.
